These results are taken from US6482850B2, “Hydrolysis-promoting hydrophobic taxane derivatives” (priority 1995, dated 2002).

For series [1], the system named is human MCF-7 breast carcinoma cells. The series can be described thus: HTD cytotoxicity, growth inhibition of MCF-7 cells (Table 1). Type of series: cell-based. To be noted: MCF-7, 72-hour incubation; ± standard deviation.
Series [2] deals with HT-29 human colon carcinoma cells. In words: In vitro sensitivity, sulforhodamine B cytotoxicity assay, HT-29 (Table 2). Type of series: cell-based. The conditions noted are these: 72-hour incubation; averaged from two separate experiments. A general note: Sulforhodamine B stains cellular protein and so reports cell mass.
For series [3], the system named is A-549 human lung carcinoma. In words: In vitro sensitivity, sulforhodamine B cytotoxicity assay, A-549 (Table 2). The format is cell-based. To be noted: 72-hour incubation; averaged from two separate experiments. As for the experimental part: Briefly, 96-well microtiter plates were inoculated (100 μL/well) with 5×10^3 (A549) or 7.5×10^3 (OVCAR-3) cells/well, in RPMI-1640 supplemented with 10% FBS (growth media). The plates were incubated for 24 hr at 37° C., 100% humidity and 5% CO2. At 24 hours, growth media (100 μL) was added to designated “time zero” plates. Similarly, serial dilutions of drug or vehicle (in media) were added (100 μL aliquots) to the test and vehicle control wells at twice the predetermined highest concentration. […] Cells (including time zero plates) were then fixed with 50 μL of 50% trichloroacetic acid (TCA) (w:v) for adherent cells or 80% TCA for suspended cells, and plates refrigerated at 4° C. for 1 hr. […] The plates were then air-dried for 24 hr.

For series [4], the system named is MCF-7/ADR (adriamycin-resistant). The series can be described thus: In vitro sensitivity, sulforhodamine B cytotoxicity assay, MCF-7/ADR (Table 2). Type of series: cell-based, human. To be noted: 72-hour incubation; averaged from two separate experiments.
Series [5] has as its system MCF-7 human breast carcinoma. The series can be described thus: In vitro sensitivity, sulforhodamine B cytotoxicity assay, MCF-7 (Table 2). To be noted: 72-hour incubation; averaged from two separate experiments. Type of series: cell-based.
For series [6], the system named is CDF1 female mice. In words: Acute toxicity of liposomal paclitaxel or paclitaxel derivative given intraperitoneally. The conditions noted are these: liposomes, i.p. As for the experimental part: Moreover, liposomes containing either paclitaxel or a 2′-(2-bromo) hydrophobic paclitaxel derivative (containing either a six-carbon (C-6), C-8, C-12, C-14 or C-16 acyl chain at the 2′ position) were administered, intraperitoneally in 5 doses, to SCID (severe combined inimunodeficiency) mice bearing a human ovarian cancer (OvCar 3), at a dose of 12.5 mg paclitaxel per kg or a dose of 50 mg paclitaxel derivative per kg.
CDF1 female mice, 5 or 10 mice per group, were intraperitoneally administered either paclitaxel-, 2′-C6-paclitaxel derivative-, or 2′-C16-paclitaxel derivative-containing liposomes, in a single dose, or 5 doses, of either 12.5, 25, 50, 100, 200, 300. 400 or 500 mg of paclitaxel or paclitaxel derivative per kg of mouse body weight.

For `CCCCCC(=O)OC(C(=O)OC1CC2(O)C(OC(=O)c3ccccc3)C3C4(OC(C)=O)COC4CC(O)C3(C)C(=O)C(OC(C)=O)C(=C1C)C2(C)C)C(NC(=O)c1ccccc1)c1ccccc1` (centres unmarked) [2′-Hexanoyl-], the concentration for 50% growth inhibition (GI50) (usually the concentration giving 50% growth inhibition) in series [1] was 500 ± 151 nM.

With `CCCCCCC(Br)C(=O)O[C@@H](C(=O)O[C@H]1C[C@@]2(O)[C@@H](OC(=O)c3ccccc3)[C@@H]3[C@]4(OC(C)=O)CO[C@@H]4C[C@H](O)[C@@]3(C)C(=O)[C@H](OC(C)=O)C(=C1C)C2(C)C)[C@@H](NC(=O)c1ccccc1)c1ccccc1` (some centres unmarked) [2′-2-Bromo-C8-Paclitaxel, 2′-(2-bromocapryanoyl) paclitaxel], the GI50 was 3.1 nM in series [2], 4.4 nM in series [3], > 10000 nM in series [4] and 2.9 nM in series [5].

As for `CCCCCCCCCCCCC(Br)C(=O)OC(C(=O)OC1CC2(O)C(OC(=O)c3ccccc3)C3C4(OC(C)=O)COC4CC(O)C3(C)C(=O)C(OC(C)=O)C(=C1C)C2(C)C)C(NC(=O)c1ccccc1)c1ccccc1` (centres unmarked) [2′-2-Bromo-C14-Paclitaxel, 2′-(2 bromomyrstanoyl) paclitaxel], the GI50 in series [2] was 20.6 nM; in series [3], 31.7 nM; in series [4] it was > 10000 nM; in series [5], 16 nM.

In the case of `CCCCC(Br)C(=O)O[C@@H](C(=O)O[C@H]1C[C@@]2(O)[C@@H](OC(=O)c3ccccc3)[C@@H]3[C@]4(OC(C)=O)CO[C@@H]4C[C@H](O)[C@@]3(C)C(=O)[C@H](OC(C)=O)C(=C1C)C2(C)C)[C@@H](NC(=O)c1ccccc1)c1ccccc1` (mixture of isomers) [2′-2-Bromohexanoyl-, 2′-(R)-[(±)-2-Bromohexanoyl] taxol], the GI50 in series [2] was 2.4 nM; in series [3], 3.9 nM; in series [4], > 10000 nM; in series [5] it was 2.3 nM; in series [1] it was 3 ± 0.2 nM. Besides, the “number of mice that died within the first 14 days post-injection/total” value in series [6] (five doses of 50 mg/kg) is reported as 0/5; in series [6] (single dose 200 mg/kg) it was 0/2; in series [6] (single dose 300 mg/kg), 4/5; in series [6] (single dose 400 mg/kg) it was 5/5; in series [6] (single dose 500 mg/kg), 5/5.

Consider `CC(=O)OC1C(=O)C2(C)C(O)CC3OCC3(OC(C)=O)C2C(OC(=O)c2ccccc2)C2(O)CC(OC(=O)C(OC(=O)CCCCCBr)C(NC(=O)c3ccccc3)c3ccccc3)C(C)=C1C2(C)C` (centres unmarked) [2′-6-Bromohexanoyl-], for which the concentration for 50% growth inhibition (GI50) in series [1] was > 10000 nM.

As to `CCCCCC(=O)OC1CC2OCC2(OC(C)=O)C2C(OC(=O)c3ccccc3)C3(O)CC(OC(=O)C(OC(C)=O)C(NC(=O)c4ccccc4)c4ccccc4)C(C)=C(C(OC(C)=O)C(=O)C12C)C3(C)C` (centres unmarked) [2′-Acetyl-7-Hexanoyl-], it took 4460 ± 60 nM to inhibit growth in series [1] by half (GI50).

On to `CCCCC(Br)C(=O)OC1CC2OCC2(OC(C)=O)C2C(OC(=O)c3ccccc3)C3(O)CC(OC(=O)C(O)C(NC(=O)c4ccccc4)c4ccccc4)C(C)=C(C(OC(C)=O)C(=O)C12C)C3(C)C` (centres unmarked) [7-2-Bromohexanoyl-], for which it took 4.6 ± 0.1 nM to inhibit growth in series [1] by half (GI50).

On to `CCCCCCCCCCC(Br)C(=O)OC(C(=O)OC1CC2(O)C(OC(=O)c3ccccc3)C3C4(OC(C)=O)COC4CC(O)C3(C)C(=O)C(OC(C)=O)C(=C1C)C2(C)C)C(NC(=O)c1ccccc1)c1ccccc1` (centres unmarked) [2′-2-Bromo-C12-Paclitaxel, 2′-(2 bromolauranoyl) paclitaxel], for which the GI50 in series [2] is 3.2 nM; in series [3], 4.4 nM; in series [4] it was > 10000 nM; in series [5], 2.8 nM.

For the compound `CCCCCC(=O)OC1CC2OCC2(OC(C)=O)C2C(OC(=O)c3ccccc3)C3(O)CC(OC(=O)C(O)C(NC(=O)c4ccccc4)c4ccccc4)C(C)=C(C(OC(C)=O)C(=O)C12C)C3(C)C` (centres unmarked) [7-Hexanoyl-], in series [1], the GI50 came out at 27 ± 19 nM.

`CC(=O)OC1C(=O)C2(C)C(OC(=O)CCCCCBr)CC3OCC3(OC(C)=O)C2C(OC(=O)c2ccccc2)C2(O)CC(OC(=O)C(O)C(NC(=O)c3ccccc3)c3ccccc3)C(C)=C1C2(C)C` (centres unmarked) [7-6-Bromohexanoyl-] had a GI50 in series [1] of 18 ± 2 nM.

Regarding `CCCCCC(=O)OC(C(=O)OC1CC2(O)C(OC(=O)c3ccccc3)C3C4(OC(C)=O)COC4CC(OC(=O)CCCCC)C3(C)C(=O)C(OC(C)=O)C(=C1C)C2(C)C)C(NC(=O)c1ccccc1)c1ccccc1` (centres unmarked) [2′,7-diHexanoyl-], the GI50 in series [1] was > 10000 nM.
